In US20230027026A1, “FUSED PYRIMIDINE COMPOUNDS, COMPOSITIONS AND MEDICINAL APPLICATIONS THEREOF” (JUBILANT BIOSYS LIMITED, priority 2019, published 2023):
Read-outs that look alike come from different tables or passages of the source.

Columns and labels:
Format in all cases: cell-based
[1] = target: EGFR (A767_dupASV) expressing Ba/F3 stable cell line (Homo sapiens, UniProt P00533, DUP767-769, cells depend on it); experiment: Cellular proliferation (Alamar Blue) assay, EGFR A767_dupASV Ba/F3; settings: EGFR A767_dupASV Ba/F3, 72 hr, read-out: A767 IC50
Procedure: (§1) Example 3: Cellular Proliferation (Alamar Blue) Assays
(§2) • 1. EGFR(D770_N771insSVD) expressing Ba/F3 stable cell line • 2. EGFR (A767_dupASV) expressing Ba/F3 stable cell line • 3. A431 cells • 4. BTER2 (A775_G776insYVMA) expressing Ba/F3 stable cell line • 5. BTER2 (WT) expressing Ba/F3 stable cell line • 6. BT-474 cells
(§3) • 1. Seed cells at 5000 for A431 and 15,000 cells for Ba/F3 in 100 μL/well in complete media (for A431: DMEM with 10% FBS and for Ba/F3 cells: RPMI with 10% FBS) in 96-well tissue culture plate. Leave outer wells without cells for background measurements. Incubate at 37 degree Celsius in 5% CO2 humidified incubator for 16-18 hours. • 2. Add 0.025 ml of 5× concentration compound dilution or DMSO control. Final compound concentration range is 10-0.0005 μM prepared in 3-fold serial dilutions. Incubate for 72 hr at 37 degree Celsius in […] humidified incubator. • 3. Add 0.0125 mL Alamar Blue™ reagent to each well with multi-channel pipette and tap gently on each side of the plate to mix. Incubate for 3 hours at 37 degree Celsius in […] humidified incubator. • 4. Read plates on fluorescence reader (Tecan Spark Control, Device: Spark, Serial #: 1801006040) at 540 nm excitation, 590 nm emission wavelength. • 5. Data analysis was performed using XLfit 5.5.0.5.

A431 cells = experiment: Cellular proliferation (Alamar Blue) assay, A431; settings: Homo sapiens
Procedure: as §1, §2, §3

[2] = target: EGFR(D770_N771insSVD) expressing Ba/F3 stable cell line (Homo sapiens, UniProt P00533, DUP768-770, cells depend on it); experiment: Cellular proliferation (Alamar Blue) assay, EGFR D770_N771insSVD Ba/F3; settings: EGFR D770_N771insSVD Ba/F3, 72 hr, read-out: D770 IC50
Procedure: as §1, §2, §3

[3] = A-431, A431 cells, 72 hr, Alamar Blue, read-out: A431 IC50

Chain of EGFR(D770_N771insSVD) expressing Ba/F3 stable cell line (P00533 with tags, fused parts or gaps DUP768-770): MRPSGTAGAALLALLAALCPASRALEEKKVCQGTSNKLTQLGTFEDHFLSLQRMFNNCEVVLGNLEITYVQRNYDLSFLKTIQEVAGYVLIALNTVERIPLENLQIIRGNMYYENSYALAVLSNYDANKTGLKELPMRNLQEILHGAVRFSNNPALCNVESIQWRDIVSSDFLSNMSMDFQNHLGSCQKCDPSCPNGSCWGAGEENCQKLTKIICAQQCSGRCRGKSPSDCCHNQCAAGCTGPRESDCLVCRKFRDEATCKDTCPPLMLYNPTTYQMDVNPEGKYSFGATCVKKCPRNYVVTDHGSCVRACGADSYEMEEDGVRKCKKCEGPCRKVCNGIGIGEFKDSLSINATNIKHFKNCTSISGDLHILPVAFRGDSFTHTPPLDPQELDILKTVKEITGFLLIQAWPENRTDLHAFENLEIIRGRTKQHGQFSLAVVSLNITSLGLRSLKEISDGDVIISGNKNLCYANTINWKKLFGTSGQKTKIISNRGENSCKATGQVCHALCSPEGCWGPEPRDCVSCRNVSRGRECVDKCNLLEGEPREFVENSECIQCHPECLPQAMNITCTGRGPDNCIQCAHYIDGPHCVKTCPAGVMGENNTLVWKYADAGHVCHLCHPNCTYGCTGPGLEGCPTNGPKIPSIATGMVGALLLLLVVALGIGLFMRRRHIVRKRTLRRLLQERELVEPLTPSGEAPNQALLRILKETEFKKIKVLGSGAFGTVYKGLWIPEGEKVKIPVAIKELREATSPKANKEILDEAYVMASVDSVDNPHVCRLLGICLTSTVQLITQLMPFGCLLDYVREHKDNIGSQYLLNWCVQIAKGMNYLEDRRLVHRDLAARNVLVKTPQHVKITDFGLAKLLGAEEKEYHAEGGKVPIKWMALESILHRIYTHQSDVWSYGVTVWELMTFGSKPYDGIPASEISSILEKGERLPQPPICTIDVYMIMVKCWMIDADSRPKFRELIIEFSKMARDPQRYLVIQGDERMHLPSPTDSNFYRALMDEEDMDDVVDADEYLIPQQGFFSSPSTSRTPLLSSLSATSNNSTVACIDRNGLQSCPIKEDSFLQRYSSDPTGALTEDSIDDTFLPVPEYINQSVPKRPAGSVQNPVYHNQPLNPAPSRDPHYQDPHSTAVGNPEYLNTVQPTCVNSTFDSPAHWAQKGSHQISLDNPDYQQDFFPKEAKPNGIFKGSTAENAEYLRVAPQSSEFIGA
Chain of EGFR (A767_dupASV) expressing Ba/F3 stable cell line (P00533 with tags, fused parts or gaps DUP767-769): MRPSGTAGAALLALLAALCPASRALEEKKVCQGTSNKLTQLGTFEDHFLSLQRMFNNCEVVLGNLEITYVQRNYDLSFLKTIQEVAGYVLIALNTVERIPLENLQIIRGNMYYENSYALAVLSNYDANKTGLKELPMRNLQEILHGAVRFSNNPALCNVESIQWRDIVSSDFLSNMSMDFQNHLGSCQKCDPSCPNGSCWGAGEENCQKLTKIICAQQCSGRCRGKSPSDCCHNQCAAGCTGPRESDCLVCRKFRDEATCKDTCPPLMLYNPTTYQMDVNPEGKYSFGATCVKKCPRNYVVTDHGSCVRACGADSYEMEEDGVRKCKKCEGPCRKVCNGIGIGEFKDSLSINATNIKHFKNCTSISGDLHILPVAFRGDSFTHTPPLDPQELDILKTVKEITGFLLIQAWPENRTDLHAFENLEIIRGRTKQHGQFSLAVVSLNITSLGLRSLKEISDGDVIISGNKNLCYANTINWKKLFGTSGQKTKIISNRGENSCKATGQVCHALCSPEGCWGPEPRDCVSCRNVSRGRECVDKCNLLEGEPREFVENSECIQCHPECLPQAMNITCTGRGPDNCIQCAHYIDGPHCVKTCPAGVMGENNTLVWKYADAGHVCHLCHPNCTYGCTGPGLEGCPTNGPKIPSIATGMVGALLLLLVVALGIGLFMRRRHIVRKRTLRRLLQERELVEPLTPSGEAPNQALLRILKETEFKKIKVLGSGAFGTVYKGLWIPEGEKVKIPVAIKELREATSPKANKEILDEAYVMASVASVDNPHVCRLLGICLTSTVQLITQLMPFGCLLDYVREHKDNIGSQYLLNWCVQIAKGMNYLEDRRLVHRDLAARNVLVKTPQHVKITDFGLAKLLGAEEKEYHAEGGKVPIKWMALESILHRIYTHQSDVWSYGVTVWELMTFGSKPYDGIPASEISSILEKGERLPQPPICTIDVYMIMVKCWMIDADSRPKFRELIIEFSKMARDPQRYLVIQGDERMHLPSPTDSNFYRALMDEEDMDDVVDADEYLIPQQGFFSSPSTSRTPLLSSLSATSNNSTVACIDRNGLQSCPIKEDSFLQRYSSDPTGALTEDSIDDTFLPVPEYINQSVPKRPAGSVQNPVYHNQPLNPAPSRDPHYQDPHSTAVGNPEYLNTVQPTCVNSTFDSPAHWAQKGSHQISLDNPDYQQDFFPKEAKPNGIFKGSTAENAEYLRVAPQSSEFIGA

Row | SMILES | GI50 [1] | IC50 (A431 cells; [3]) | GI50 [2] | IC50 (A431 cells; A-431, 72 h, read-out: A431 IC50 (nM))
1 | CN(C)C/C=C/C(=O)Nc1ccc(Cl)c(N2C(=O)N(Cc3ccccc3)Cc3cnc(Nc4cn(C)nc4Cl)nc32)c1 [Compound 86, (E)-N-(3-(3-benzyl-7-((3-chloro-1-methyl-1H-pyrazol-4-yl)amino)-2-oxo-3,4-dihydropyrimido[4,5-d]pyrimidin-1(2H)-yl)-4-chlorophenyl)-4-(dimethylamino)but-2-enamide] | 0.694 µM | 5440 nM | 0.9 µM | –
2 | C=C(OC)C(=O)Nc1cccc(N2C(=O)N(c3ccccc3)Cc3cnc(Nc4cn(C)nc4Cl)nc32)c1 [Compound 127, N-(3-(7-((3-chloro-1-methyl-1H-pyrazol-4-yl)amino)-2-oxo-3-phenyl-3,4-dihydropyrimido[4,5-d]pyrimidin-1(2H)-yl)phenyl)-2-methoxyacrylamide] | ≥ 10 µM | 8170 nM | ≥ 10 µM | –
3 | CN(C)C/C=C/C(=O)Nc1cccc(N2C(=O)N(Cc3ccccc3)Cc3cnc(Nc4cnc5c(cnn5C)c4)nc32)c1 [Compound 53, (E)-N-(3-(3-benzyl-7-((1-methyl-1H-pyrazolo[3,4-b]pyridin-5-yl)amino)-2-oxo-3,4-dihydropyrimido[4,5-d]pyrimidin-1(2H)-yl)phenyl)-4-(dimethylamino)but-2-enamide] | 0.474 µM | ≥ 10000 nM | 1.05 µM | –
4 | CN(C)C/C=C/C(=O)N(C)c1cccc(N2C(=O)N(c3ccccc3)Cc3cnc(Nc4cn(C)nc4Cl)nc32)c1 [Compound 104, (E)-N-(3-(7-((3-chloro-1-methyl-1H-pyrazol-4-yl)amino)-2-oxo-3-phenyl-3,4-dihydropyrimido[4,5-d]pyrimidin-1(2H)-yl)phenyl)-4-(dimethylamino)-N-methylbut-2-enamide] | 0.255 µM | ≥ 10000 nM | 0.885 µM | –
5 | CN(C)C/C=C/C(=O)Nc1cccc(N2C(=O)N(Cc3ccccc3)Cc3cnc(Nc4cccc5c4CCN5C4CCN(C)CC4)nc32)c1 [Compound 98, (E)-N-(3-(3-benzyl-7-((1-(1-methylpiperidin-4-yl)indolin-4-yl)amino)-2-oxo-3,4-dihydropyrimido[4,5-d]pyrimidin-1(2H)-yl)phenyl)-4-(dimethylamino)but-2-enamide] | 0.322 µM | ≥ 10000 nM | 0.138 µM | –
6 | C=CC(=O)Nc1cc(N2C(=O)N(Cc3ccccc3)Cc3cnc(Nc4cn(C)nc4Cl)nc32)ccc1OC [Compound 77, N-(5-(3-benzyl-7-((3-chloro-1-methyl-1H-pyrazol-4-yl)amino)-2-oxo-3,4-dihydropyrimido[4,5-d]pyrimidin-1(2H)-yl)-2-methoxyphenyl)acrylamide] | ≥ 10 µM | ≥ 10000 nM | 9.13 µM | –
7 | CN(C)C/C=C/C(=O)Nc1cccc(N2C(=O)N(Cc3ccccc3)Cc3cnc(Nc4cn(C)nc4Cl)cc32)c1 [Compound 64, (E)-N-(3-(3-benzyl-7-((3-chloro-1-methyl-1H-pyrazol-4-yl)amino)-2-oxo-3,4-dihydropyrido[4,3-d]pyrimidin-1(2H)-yl)phenyl)-4-(dimethylamino)but-2-enamide] | 0.809 µM | ≥ 10000 nM | 1.03 µM | –
8 | CN(C)C/C=C/C(=O)Nc1cccc(N2C(=O)N(Cc3ccccc3)Cc3cnc(Nc4cnn5c4OCCC5)nc32)c1 [Compound 97, (E)-N-(3-(3-benzyl-7-((6,7-dihydro-5H-pyrazolo[5,1-b][1,3]oxazin-3-yl)amino)-2-oxo-3,4-dihydropyrimido[4,5-d]pyrimidin-1(2H)-yl)phenyl)-4-(dimethylamino)but-2-enamide] | 2.63 µM | ≥ 10000 nM | 2.54 µM | –
9 | CN(C)C/C=C/C(=O)Nc1cccc(N2C(=O)N(Cc3ccccc3)Cc3cnc(Nc4cnn5cccnc45)nc32)c1 [Compound 90, (E)-N-(3-(3-benzyl-2-oxo-7-(pyrazolo[1,5-a]pyrimidin-3-ylamino)-3,4-dihydropyrimido[4,5-d]pyrimidin-1(2H)-yl)phenyl)-4-(dimethylamino)but-2-enamide] | 1.15 µM | ≥ 10000 nM | 1.85 µM | –
10 | Cc1nocc1Nc1ncc2c(n1)N(c1cccc(NC(=O)/C=C/CN(C)C)c1)C(=O)N(Cc1ccccc1)C2 [Compound 60, (E)-N-(3-(3-benzyl-7-((3-methylisoxazol-4-yl)amino)-2-oxo-3,4-dihydropyrimido[4,5-d]pyrimidin-1(2H)-yl)phenyl)-4-(dimethylamino)but-2-enamide] | 1.7 µM | ≥ 10000 nM | 2.39 µM | –
11 | COc1cc(CN2Cc3cnc(Nc4cn(C)nc4Cl)nc3N(c3cccc(NC(=O)/C=C/CN(C)C)c3)C2=O)ccn1 [Compound 62, (E)-N-(3-(7-((3-chloro-1-methyl-1H-pyrazol-4-yl)amino)-3-((2-methoxypyridin-4-yl)methyl)-2-oxo-3,4-dihydropyrimido[4,5-d]pyrimidin-1(2H)-yl)phenyl)-4-(dimethylamino)but-2-enamide] | 2.26 µM | ≥ 10000 nM | 5.48 µM | –
12 | CN(C)C/C=C/C(=O)N(C)c1cccc(N2C(=O)N(Cc3ccccc3)Cc3cnc(Nc4cn(C)nc4Cl)nc32)c1 [Compound 63, (E)-N-(3-(3-benzyl-7-((3-chloro-1-methyl-1H-pyrazol-4-yl)amino)-2-oxo-3,4-dihydropyrimido[4,5-d]pyrimidin-1(2H)-yl)phenyl)-4-(dimethylamino)-N-methylbut-2-enamide] | 0.532 µM | ≥ 10000 nM | 1.46 µM | –
13 | COC/C=C/C(=O)Nc1cccc(N2C(=O)N(Cc3ccccc3)Cc3cnc(Nc4cn(C)nc4Cl)nc32)c1 [Compound 76, (E)-N-(3-(3-benzyl-7-((3-chloro-1-methyl-1H-pyrazol-4-yl)amino)-2-oxo-3,4-dihydropyrimido[4,5-d]pyrimidin-1(2H)-yl)phenyl)-4-methoxybut-2-enamide] | 0.336 µM | ≥ 10000 nM | 0.342 µM | –
14 | CN(C)C/C=C/C(=O)Nc1cccc(N2C(=O)N(Cc3ccccc3)Cc3cnc(Nc4cn(C)nc4C(F)F)nc32)c1 [Compound 94, (E)-N-(3-(3-benzyl-7-((3-(difluoromethyl)-1-methyl-1H-pyrazol-4-yl)amino)-2-oxo-3,4-dihydropyrimido[4,5-d]pyrimidin-1(2H)-yl)phenyl)-4-(dimethylamino)but-2-enamide] | 0.039 µM | ≥ 10000 nM | 0.043 µM | –
15 | CN(C)C/C=C/C(=O)Nc1cccc(N2C(=O)N(Cc3ccccc3)Cc3cnc(Nc4ccc5c(ccn5C)c4)nc32)c1 [Compound 99, (E)-N-(3-(3-benzyl-7-((1-methyl-1H-indol-5-yl)amino)-2-oxo-3,4-dihydropyrimido[4,5-d]pyrimidin-1(2H)-yl)phenyl)-4-(dimethylamino)but-2-enamide] | 0.115 µM | ≥ 10000 nM | 0.145 µM | –
16 | C=CC(=O)Nc1cccc(N2C(=O)N(c3ccccc3)Cc3cnc(Nc4cn(C5CCN(C)CC5)nc4Cl)nc32)c1 [Compound 105, N-(3-(7-((3-chloro-1-(1-methylpiperidin-4-yl)-1H-pyrazol-4-yl)amino)-2-oxo-3-phenyl-3,4-dihydropyrimido[4,5-d]pyrimidin-1(2H)-yl)phenyl)acrylamide] | 0.012 µM | 3600 nM | 0.014 µM | –
17 | C[C@H](c1ccccc1)N1Cc2cnc(Nc3cnn(C)c3)nc2N(c2cccc(NC(=O)/C=C/CN(C)C)c2)C1=O (single isomer, unassigned) [Compound 133] | 1.12 µM | – | 2.69 µM | ≥ 10000 nM
18 | CN(C)C/C=C/C(=O)Nc1cccc(N2C(=O)N(Cc3ccccc3)Cc3cnc(Nc4cn(CCF)nc4Cl)nc32)c1 [Compound 93, (E)-N-(3-(3-benzyl-7-((3-chloro-1-(2-fluoroethyl)-1H-pyrazol-4-yl)amino)-2-oxo-3,4-dihydropyrimido[4,5-d]pyrimidin-1(2H)-yl)phenyl)-4-(dimethylamino)but-2-enamide] | 0.108 µM | ≥ 10000 nM | 0.091 µM | –
19 | CN(C)C/C=C/C(=O)Nc1cccc(N2C(=O)N(Cc3ccc(F)cc3F)Cc3cnc(Nc4cn(C)nc4Cl)nc32)c1 [Compound 61, (E)-N-(3-(7-((3-chloro-1-methyl-1H-pyrazol-4-yl)amino)-3-(2,4-difluorobenzyl)-2-oxo-3,4-dihydropyrimido[4,5-d]pyrimidin-1(2H)-yl)phenyl)-4-(dimethylamino)but-2-enamide] | 0.058 µM | ≥ 10000 nM | 0.105 µM | –
